Patent publication US12509431B2, “1,4-dihydroquinazolinone compounds and uses thereof” (Edgewise Therapeutics, Inc., priority 2022, dated 2025)

Assays:
Assay type in all cases: biochemical
[1] = biological target: T1, myosin+human ventricle RLC (Sus scrofa, UniProt P79293); test: NADH-coupled actin-activated ATPase assay, myosin + human ventricle RLC; details: 2 μM myosin, rabbit skeletal actin, 25° C., 1% DMSO
T1 construct: Full-length myosin was resuspended to 1 mg/mL
Description: (§1) Full-length myosin was resuspended to 1 mg/mL in a buffer containing 500 mM KCl, 10 mM KPi, 15 mM CDTA, pH 8.5. Triton-X was then added to a final concentration of […], and the suspension was agitated for 15 minutes at room temperature to selectively remove the regulatory light chain (RLC). RLC-removed myosin was then precipitated and collected and resuspended in a buffer containing 400 mM KCl, 50 mM Mops, pH 7, 2 mM MgCl2, and 1 mM DTT. Recombinantly expressed and purified human ventricle RLC was added in a 3-fold molar excess to myosin and incubated on ice for 2 hours to allow for reassociation of the RLC onto myosin. Triton (0.1%) was added to the reaction to prevent any non-specific binding events. RLC-exchanged myosin was then precipitated and collected and resuspended in a buffer containing 12 mM PIPES, pH 6.8, […], 2 mM MgCl2, and 1 mM DTT. RLC removal and exchange were confirmed by SDS-PAGE and proteins were visualized using coomassie stain.
(§2) Myosin was resuspended in buffer A (f.c.=12 mM PIPES, pH 6.8, 30 mM KCl, 2 mM MgCl2, 1 mM DTT, 0.1 mg/mL BSA, 0.01% (v/v) Antifoam 204, and 0.6% (v/v) PK/LDH (final reaction contains ≥3.6 U/mL PK and >5.4 U/mL LDH)) at final concentrations of 1 μM for myosin+native RLC and 2 μM for myosin+removed RLC and myosin+human ventricle RLC. Buffer A was then mixed with an equal volume of buffer B (f.c.=12 mM PIPES, pH 6.8, 30 mM KCl, 2 mM MgCl2, 1 mM DTT, 0.1 mg/mL BSA, 0.01% (v/v) Antifoam 204, 0.5 mM NADH, 1.5 mM phosphoenolpyruvate, 1 mM ATP, and 0.3 mg/mL filamentous rabbit skeletal actin) in a 384-well plate. Dose-dependent compound effects were assessed by adding the compounds at varying concentrations between 100 μM and 2 nM, all with a constant final DMSO concentration of 1% v/v. The reactions were run at a constant temperature of 25° C. in the plate reader to monitor the change in A340 over time. Measurements were taken every 90 sec for 75 min to generate raw time-domain absorbance data, which was processed to normalized reaction rates. Normalized enzymatic rates were calculated, using rates observed in 1% (v/v) in DMSO as 100% and 0 slope as 0%. Compound-specific activity curves were generated by plotting the normalized rates versus compound concentration and fitting the data to a 4-parameter logistic model. In addition to the fit parameters, the IC25% was calculated, relative to the 100% normalized value.

Porcine Atria myofibrils = test: Myofibril ATPase assay (PK/LDH NADH-coupled), atria myofibrils
Outline: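 Porcine atrial myofibril ATPase followed via PK/LDH-coupled NADH depletion, absorbance at 340 nm read every 1.5-2 min over 75 min. Slopes (mAU/min) normalized to vehicle as 100% and fit to a 4-parameter logistic; EC25% derived, plus EC50% for inhibitors.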

myosin+removed RLC = biological target: T2, myosin+removed RLC (Sus scrofa, UniProt P79293); test: NADH-coupled actin-activated ATPase assay, myosin + removed RLC; details: 2 μM myosin, rabbit skeletal actin, 25° C., 1% DMSO
T2 construct: Full-length myosin was resuspended to 1 mg/mL
Description: as §1, §2

[2] = biological target: T3, Porcine Ventricle myofibrils (left ventricle of Yucatan minipigs) (Sus scrofa, UniProt P79293); test: Myofibril ATPase assay (PK/LDH NADH-coupled), ventricle myofibrils
T3 construct: Myofibrils from porcine cardiac muscle was isolated from the left ventricle of Yucatan minipigs; tissue Exemplar Genetics; host or cells: left ventricle of Yucatan minipigs
Outline: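 Yucatan minipig left-ventricle myofibrils; ATPase measured by PK/LDH-coupled NADH loss at 340 nm, read every 1.5-2 min for 75 min. Slopes normalized to vehicle (100%) and fit to 4-parameter logistic model; EC25 and, for inhibitors, EC50 calculated.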

myosin+native RLC = biological target: T4, myosin+native RLC (Sus scrofa, UniProt P79293); test: NADH-coupled actin-activated ATPase assay, myosin + native RLC; details: 1 μM myosin, rabbit skeletal actin, 25° C., 1% DMSO
T4 construct: Full-length myosin was resuspended to 1 mg/mL
Description: as §1, §2

[3] = test system: Rabbit Skeletal myofibrils (rabbit psoas muscle); test: Myofibril ATPase assay (PK/LDH NADH-coupled), skeletal myofibrils
Outline: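 Rabbit psoas myofibrils in pCa (PIPES/CaCl2/EGTA, pH 7.0) buffer; ADP coupled via PK/LDH to NADH loss, read at 340 nm every 1.5–2 min for 75 min. Slopes normalized to vehicle (100%) and fit to 4-parameter logistic for EC25, plus EC50 for inhibitors.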

T1 sequence (P79293 whole entry): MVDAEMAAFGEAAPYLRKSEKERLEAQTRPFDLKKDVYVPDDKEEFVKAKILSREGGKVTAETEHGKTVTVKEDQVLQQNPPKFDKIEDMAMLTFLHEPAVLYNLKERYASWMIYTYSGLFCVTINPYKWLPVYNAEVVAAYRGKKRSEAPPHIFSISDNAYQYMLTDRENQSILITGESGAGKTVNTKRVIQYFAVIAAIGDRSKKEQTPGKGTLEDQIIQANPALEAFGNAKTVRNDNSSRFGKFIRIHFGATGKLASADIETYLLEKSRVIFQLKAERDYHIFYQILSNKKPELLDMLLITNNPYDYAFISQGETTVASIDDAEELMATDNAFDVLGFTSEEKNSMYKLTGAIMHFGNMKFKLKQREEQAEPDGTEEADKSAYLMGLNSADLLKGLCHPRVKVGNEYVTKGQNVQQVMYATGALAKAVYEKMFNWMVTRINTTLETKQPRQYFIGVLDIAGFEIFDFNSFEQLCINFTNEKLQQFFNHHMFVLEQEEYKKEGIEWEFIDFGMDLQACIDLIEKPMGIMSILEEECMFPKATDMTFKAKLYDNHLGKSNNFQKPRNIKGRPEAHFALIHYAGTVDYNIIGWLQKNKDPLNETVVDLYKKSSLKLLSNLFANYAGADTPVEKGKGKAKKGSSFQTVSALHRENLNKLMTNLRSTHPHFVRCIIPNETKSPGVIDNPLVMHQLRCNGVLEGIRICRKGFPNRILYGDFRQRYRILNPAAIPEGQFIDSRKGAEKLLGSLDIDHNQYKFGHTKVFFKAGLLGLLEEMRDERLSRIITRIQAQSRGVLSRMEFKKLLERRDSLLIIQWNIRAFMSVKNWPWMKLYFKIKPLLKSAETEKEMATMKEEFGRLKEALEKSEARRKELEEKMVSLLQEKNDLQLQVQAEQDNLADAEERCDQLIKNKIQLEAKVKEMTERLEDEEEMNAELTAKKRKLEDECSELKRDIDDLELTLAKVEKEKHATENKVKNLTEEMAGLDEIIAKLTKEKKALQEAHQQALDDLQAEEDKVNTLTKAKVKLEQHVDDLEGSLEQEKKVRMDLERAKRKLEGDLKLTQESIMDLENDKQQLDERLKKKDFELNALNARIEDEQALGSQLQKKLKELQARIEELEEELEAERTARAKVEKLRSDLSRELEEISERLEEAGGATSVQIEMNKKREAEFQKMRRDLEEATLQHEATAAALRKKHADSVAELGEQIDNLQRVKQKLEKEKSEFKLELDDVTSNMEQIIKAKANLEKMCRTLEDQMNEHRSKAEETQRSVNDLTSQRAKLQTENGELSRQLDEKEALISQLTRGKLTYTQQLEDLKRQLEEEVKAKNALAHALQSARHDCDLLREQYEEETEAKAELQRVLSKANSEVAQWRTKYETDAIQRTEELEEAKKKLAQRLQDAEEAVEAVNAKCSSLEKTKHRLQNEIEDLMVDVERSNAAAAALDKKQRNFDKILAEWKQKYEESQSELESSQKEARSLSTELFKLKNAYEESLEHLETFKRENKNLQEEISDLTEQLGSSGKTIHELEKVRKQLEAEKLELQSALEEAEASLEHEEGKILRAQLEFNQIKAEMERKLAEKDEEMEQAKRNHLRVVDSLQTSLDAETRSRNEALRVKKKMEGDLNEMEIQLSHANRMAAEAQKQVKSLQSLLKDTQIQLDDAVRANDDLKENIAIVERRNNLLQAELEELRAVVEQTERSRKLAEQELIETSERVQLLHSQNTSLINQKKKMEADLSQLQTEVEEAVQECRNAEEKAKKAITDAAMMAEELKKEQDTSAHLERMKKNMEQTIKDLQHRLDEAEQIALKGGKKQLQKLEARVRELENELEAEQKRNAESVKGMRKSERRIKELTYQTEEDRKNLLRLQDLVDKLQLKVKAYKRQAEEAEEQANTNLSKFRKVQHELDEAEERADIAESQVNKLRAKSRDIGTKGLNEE
T4 sequence (P79293 whole entry): as above
T2 sequence (P79293 whole entry): as above
T3 sequence (P79293 whole entry): as above

Row | Structure (SMILES) | Potency, Full-length myosin + exchanged human ventricle RLC [1] | Porcine Atria IC25 (Porcine Atria myofibrils; Table 8) | Potency, Full-length myosin + RLC removed (myosin+removed RLC) | Porcine Ventricle IC25 ([2]; Table 8) | Potency, Full-length myosin + native porcine ventricle RLC (myosin+native RLC) | Rabbit Psoas IC25 ([3]; Table 8) | Porcine Atria IC25 (Porcine Atria myofibrils; Table 7) | Porcine Ventricle IC25 ([2]; Table 7) | Rabbit Psoas IC25 ([3]; Table 7)
1 | C[C@H](NC(=O)C1(N2Cc3c(ccc(F)c3F)NC2=O)CC1)c1ncc(C#N)cc1F [Compound B269] | 490 nM | 60 nM | >100000 nM | 150 nM | 590 nM | 60 nM | – | – | –
2 | C[C@H](NC(=O)CN1C(=O)Nc2cccnc2C12CC2)c1ncc(C#N)cc1F [Compound N26] | 1920 nM | – | >100000 nM | – | 2170 nM | – | 150 nM | 1309 nM | 47.64 nM
3 | C[C@H](NC(=O)CN1Cc2cc(F)ccc2NC1=O)c1ccc(C#N)cn1 [Compound B172] | 14390 nM | 2940 nM | >100000 nM | 20930 nM | 12320 nM | 2013 nM | – | – | –
